Results reported in patent publication US10670605B2, “Cysteine reactive probes and uses thereof” (The Scripps Research Institute, priority 2015, dated 2020).

How the values were obtained:
ACAT1 C196 (P24752) = target: T1, ACAT1 C196 (P24752) (Homo sapiens, UniProt P24752); test: Competitive isoTOP-ABPP, cell lysates; type: binding; conditions: 500 μm, in-vitro_ramos_231
T1 sequence (P24752 34-427): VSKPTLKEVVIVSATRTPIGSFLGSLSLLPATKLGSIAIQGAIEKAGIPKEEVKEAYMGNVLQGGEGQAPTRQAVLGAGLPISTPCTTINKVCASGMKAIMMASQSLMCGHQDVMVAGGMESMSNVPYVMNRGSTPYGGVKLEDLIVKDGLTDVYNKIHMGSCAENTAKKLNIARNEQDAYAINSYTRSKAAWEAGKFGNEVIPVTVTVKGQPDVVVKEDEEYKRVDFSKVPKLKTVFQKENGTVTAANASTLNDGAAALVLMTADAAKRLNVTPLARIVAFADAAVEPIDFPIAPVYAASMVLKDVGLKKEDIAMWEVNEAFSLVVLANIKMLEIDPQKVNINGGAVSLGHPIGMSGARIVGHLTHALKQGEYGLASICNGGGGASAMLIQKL

O00541_C272 = O00541_C272 (Homo sapiens, UniProt O00541); test: Competitive isoTOP-ABPP, cell lysates; type: binding; conditions: 500 μm, in-vitro_ramos_231
ACAT1 C413 (P24752) = target: T2, ACAT1 C413 (P24752) (Homo sapiens, UniProt P24752); test: Competitive isoTOP-ABPP, cell lysates; type: binding; conditions: 500 μm, in-vitro_ramos_231
T2 sequence (P24752 34-427): T1 sequence (P24752 34-427)

ACAT1 C126 (P24752) = target: T3, ACAT1 C126 (P24752) (Homo sapiens, UniProt P24752); test: Competitive isoTOP-ABPP, cell lysates; type: binding; conditions: 500 μm, in-vitro_ramos_231
T3 sequence (P24752 34-427): T1 sequence (P24752 34-427)

GSTP1 C48 (P09211) = GSTP1 C48 (P09211) (Homo sapiens, UniProt P09211); test: Competitive isoTOP-ABPP, cell lysates; type: binding; conditions: 500 μm, in-vitro_ramos_231;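 also: Heavy/light ratio DMSO over fragment-treated so higher means more cysteine engagement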
Protocol: (§1) TEV digests were pressure loaded onto a 250 μm (inner diameter) fused silica capillary column packed with C18 resin (Aqua 5 μm, Phenomenex). The samples were analyzed by multidimensional liquid chromatography tandem mass spectrometry (MudPIT), using an LTQ-Velos Orbitrap mass spectrometer (Thermo Scientific) coupled to an Agilent 1200-series quaternary pump. The peptides were eluted onto a biphasic column with a 5 μm tip (100 μm fused silica, packed with C18 (10 cm) and bulk strong cation exchange resin (3 cm, SCX, Phenomenex,)) in a 5-step MudPIT experiment, using 0%, 30%, 60%, 90%, and 100% salt bumps of 500 mM aqueous ammonium acetate and using a gradient of 5-100% buffer B in buffer A (buffer A: 95% water, 5% acetonitrile, 0.1% formic acid; buffer B: 5% water, 95% acetonitrile, 0.1% formic acid) as has been described in Weerapana et al. Nat Protoc 2:1414-1425 (2007). Data was collected in data-dependent acquisition mode with dynamic exclusion enabled (20 s, repeat of 2). One full MS (MS1) scan (400-1800 m/z) was followed by 30 MS2 scans (ITMS) of the nth most abundant ions.
(§2) The ratios of heavy/light for each unique peptide (DMSO/compound treated; isoTOP-ABPP ratios, R values) were quantified with in-house CIMAGE software, using default parameters (3 ms s per peak and signal to noise threshold 2.5). Site-specific engagement of electrophilic fragments was assessed by blockade of IA-alkyne probe labeling. […] Ratios for unique peptide entries were calculated for each experiment; overlapping peptides with the same modified cysteine (e.g. different charge states, MudPIT chromatographic steps or tryptic termini) were grouped together and the median ratio was reported as the final ratio (R). The peptide ratios reported by CIMAGE were further filtered to ensure the removal or correction of low quality ratios in each individual dataset. The quality filters applied were the following: removal of half tryptic peptides; for ratios with high standard deviations from the median (90% of the median or above) the lowest ratio was taken instead of the median; removal of peptides with R=20 and only a single ms2 event triggered during the elution of the parent ion; manual annotation of all the peptides with ratios of 20, removing any peptides with low-quality elution profiles that remained after the previous curation steps. Proteome reactivity values for individual fragments were computed as the percentage of the total quantified cysteine-containing peptides with R values≥4 (defined as liganded cysteines) for each replicate experiment and the final proteome reactivity value was calculated as the mean for all replicate experiments for each fragment from both MDA-MB-231 and Ramos cellular proteomes.
(§3) Biological replicates of the same compound and cell-line were averaged if the standard deviation was below 60% of the mean; otherwise the lowest value of the ratio set was taken.

PRMT1 C109 (Q99873) = PRMT1 C109 (Q99873) (Homo sapiens, UniProt Q99873); test: Competitive isoTOP-ABPP, cell lysates; type: binding; conditions: 500 μm, in-vitro_ramos_231;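 also: Heavy/light ratio DMSO over fragment-treated so higher means more cysteine engagement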
Protocol: as §1, §2, §3

XPO1 C34 (O14980) = XPO1 C34 (O14980) (Homo sapiens, UniProt O14980); test: Competitive isoTOP-ABPP, cell lysates; type: binding; conditions: 500 μm, in-vitro_ramos_231
Protocol: as §1, §2, §3

PDIA6 C55 (Q15084) = target: T4, PDIA6 C55 (Q15084) (Homo sapiens, UniProt Q15084); test: Competitive isoTOP-ABPP, cell lysates; type: binding; conditions: 500 μm, in-vitro_ramos_231
T4 sequence (Q15084 20-440): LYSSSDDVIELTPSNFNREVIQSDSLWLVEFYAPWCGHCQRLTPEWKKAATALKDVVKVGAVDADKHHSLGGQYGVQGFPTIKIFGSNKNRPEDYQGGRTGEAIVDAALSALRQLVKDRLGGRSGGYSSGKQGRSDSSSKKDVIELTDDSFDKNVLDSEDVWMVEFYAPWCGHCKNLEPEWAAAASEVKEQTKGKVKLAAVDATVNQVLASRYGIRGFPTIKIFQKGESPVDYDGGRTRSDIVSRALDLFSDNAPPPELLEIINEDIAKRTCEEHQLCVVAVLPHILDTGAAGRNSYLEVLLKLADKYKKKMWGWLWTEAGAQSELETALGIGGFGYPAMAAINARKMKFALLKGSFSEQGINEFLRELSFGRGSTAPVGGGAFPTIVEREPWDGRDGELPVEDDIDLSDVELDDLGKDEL
Protocol: as §1, §2, §3

UBE2L3 C86 (P68036) = UBE2L3 C86 (P68036) (Homo sapiens, UniProt P68036); test: Competitive isoTOP-ABPP, cell lysates; type: binding; conditions: 500 μm, in-vitro_ramos_231;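 also: Heavy/light ratio DMSO over fragment-treated so higher means more cysteine engagement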
Protocol: as §1, §2, §3

MLTK C22 (Q9NYL2) = MLTK C22 (Q9NYL2) (Homo sapiens, UniProt Q9NYL2); test: Competitive isoTOP-ABPP, cell lysates; type: binding; conditions: 500 μm, in-vitro_ramos_231
Protocol: as §1, §2, §3

GNB2L1 C182 (P63244) = GNB2L1 C182 (P63244) (Homo sapiens, UniProt P63244); test: Competitive isoTOP-ABPP, cell lysates; type: binding; conditions: 500 μm, in-vitro_ramos_231;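 also: Heavy/light ratio DMSO over fragment-treated so higher means more cysteine engagement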
Protocol: as §1, §2, §3

ACAT1 C119 (P24752) = target: T5, ACAT1 C119 (P24752) (Homo sapiens, UniProt P24752); test: Competitive isoTOP-ABPP, cell lysates; type: binding; conditions: 500 μm, in-vitro_ramos_231
T5 sequence (P24752 34-427): T1 sequence (P24752 34-427)

MLTK (ZAK) C22 = target: T6, MLTK (ZAK) C22 (Homo sapiens, UniProt Q9NYL2); test: Blockade of ibrutinib-derived probe 59 labeling of MLTK (gel-based ABPP); type: binding; conditions: read-out: IC50 for blockade of ibrutinib probe 59 labeling of MLTK; recombinant MLTK in HEK293T lysate
T6 construct: expressed in transfected cells
Protocol: CuAAC was performed with 20 μM rhodamine-azide (50× stock in DMSO), 1 mM tris(2-carboxyethyl)phosphine hydrochloride (TCEP; fresh 50× stock in water, final concentration=1 mM), ligand (17× stock in DMSO:t-butanol 1:4, final concentration=100 μM) and 1 mM CuSO4 (50× stock in water, final concentration=1 mM). […] Quenched reactions were analyzed by SDS-PAGE and visualized by in-gel fluorescence. […] For MLTK, HEK 293T cells stably overexpressing MTLK^2 were treated with the indicated fragment electrophiles for 1 h, followed by labeling with 59 (1 μl, of 125 μM, final concentration=5 μM) for 1 h. These were followed by CuAAC conjugation to rhodamine-azide and evaluation by SDS-PAGE as described above.

MLTK [1] = target: T7, MLTK (Homo sapiens, UniProt Q9NYL2, C22A); test: MLTK in vitro kinase activity assay; type: biochemical; conditions: C22A-MLTK, 100 μM fragment
T7 construct: expressed in transfected cells
Protocol: (§4) The kinase activity assay protocol was conducted as described in Wang et al. ACS Chemical biology 9:2194-2198 (2014). Kinase assay buffers, myelin basic protein (MBP) substrate and ATP stock solution were purchased from SignalChem. Radio-labeled [γ-^33P] ATP was purchased from PerkinElmer. 250 μL of HEK-293T soluble lysates (8 mg/mL), stably overexpressing WT, C22A or K45M MLTK were labeled for 1 h with 100 μM fragment or DMSO. The samples were then individually immunoprecipitated with 20 μL flag resin slurry per sample and then eluted with 15 μL 3×Flag-peptide. To each sample was added 5 μL of MBP and then 5 μL of [γ-^33P] ATP assay cocktail (250 μM, 167 μCi/mL) was added to initiate the kinase reaction. Each reaction mixture was incubated at ambient temperature for 30 min, and the reactions were terminated by spotting 25 μL of the reaction mixture onto individual precut phosphocellulose P81 paper. The spotted P81 strips were washed with 10 mL of 1% phosphoric acid (3×10 min). MLTK activity was measured by counting the radioactivity on the P81 paper in the presence of scintillation fluid in a scintillation counter. […] Relative activities for WT and C22A were normalized to their respective DMSO treated samples. Experiments were performed in triplicate.

MLTK [2] = target: T8, MLTK (Homo sapiens, UniProt Q9NYL2); test: MLTK in vitro kinase activity assay; type: biochemical; conditions: WT-MLTK, 100 μM fragment
T8 construct: expressed in transfected cells
Protocol: as §4

CCCN(C(=O)CCl)c1c(N)n(CCC)c(=O)[nH]c1=O [compound 55]
isoTOP-ABPP reactivity profile ratio, P24752_C196 (ACAT1 C196 (P24752)): 1.0 | isoTOP-ABPP reactivity profile ratio, O00541_C272 (O00541_C272): 1.0 | isoTOP-ABPP reactivity profile ratio, P24752_C413 (ACAT1 C413 (P24752)): 1.0 | isoTOP-ABPP reactivity profile ratio, P24752_C126 (ACAT1 C126 (P24752)): 0.9 | isoTOP-ABPP reactivity profile ratio, P09211_C48 (GSTP1 C48 (P09211)): 1.4 | isoTOP-ABPP reactivity profile ratio, Q99873_C109 (PRMT1 C109 (Q99873)): 1.0 | isoTOP-ABPP reactivity profile ratio, O14980_C34 (XPO1 C34 (O14980)): 0.9 | isoTOP-ABPP reactivity profile ratio, Q15084_C55 (PDIA6 C55 (Q15084)): 0.9 | isoTOP-ABPP reactivity profile ratio, P68036_C86 (UBE2L3 C86 (P68036)): 1.0 | isoTOP-ABPP reactivity profile ratio, Q9NYL2_C22 (MLTK C22 (Q9NYL2)): 1.2 | isoTOP-ABPP reactivity profile ratio, P63244_C182 (GNB2L1 C182 (P63244)): 1.0 | isoTOP-ABPP reactivity profile ratio, P24752_C119 (ACAT1 C119 (P24752)): 0.9

O=C(CCl)N1N=C(c2ccco2)CC1c1cc2ccccc2o1 (stereo not drawn) [compound 60]
IC50 (MLTK (ZAK) C22): 2600 nM | inhibitory effect on C22A-MLTK mutant (MLTK [1]): not observed | catalytic activity of MLTK (substrate phosphorylation) (MLTK [2]): blocked the catalytic activity
